In patent US4112086A, “7β-Acylamino-3-(phosphonoalkyl and esterified phosphonoalkyl substituted tetrazolylthiomethyl)cephalosporins” (SmithKline Corporation, priority 1976, dated 1978):
Values after ≈ are worked out from the molar mass of the structure shown. Counter-ions that a name gives are not always drawn. Like-named read-outs stand apart in the source and are kept apart here.

Key:
E. coli HH 33779 = test: in vitro testing, minimum inhibitory concentration (MIC); format: cell-based
Procedure: (§1) The compounds of Formula I have anti-bacterial activity against both Gram-positive and Gram-negative organisms. Minimum inhibitory concentrations (MIC's) range from 0.1 to >200 μg/ml in in vitro testing. Test results for the compounds 7β-D-mandelamido-3-(1-diethoxyphosphinylmethyltetrazol-5-ylthiomethyl)-3-cephem-4-carboxylic acid sodium salt hydrate (Compound A), 7β-D-mandelamido-3-(1-ethoxyhydroxyphosphinylmethyltetrazol-5-ylthiomethyl)-3-cephem-4-carboxylic acid disodium salt hydrate (Compound B) and 7β-D-mandelamido-3-(1-phosphonomethyltetrazol-5-ylthiomethyl)-3-cephem-4-carboxylic acid (Compound C) are given below. Results shown in parenthesis are those obtained for cefazolin.

E. coli SK 12140 = test: as above; format: cell-based
Procedure: as §1

[1] = tested on: Entero. aerog. ATCC 13048; test: as above; format: cell-based
Procedure: as §1

Entero. cloacae HH 31254 = test: as above; format: cell-based; conditions: Enterobacter cloacae, HH31254
Procedure: as §1

Kleb. pneumo. SK 1200 = test: as above; format: cell-based
Procedure: as §1

Kleb. pneumo. SK 4200 = test: as above; format: cell-based; conditions: cefazolin values in parenthesis
Procedure: as §1

Proteus mirabilis 444 = test: as above; format: cell-based
Procedure: as §1

Proteus morgani 179 = test: as above; format: cell-based; conditions: cefazolin values in parenthesis
Procedure: as §1

Pseudo. aerug. HH 63 = test: as above; format: cell-based
Procedure: as §1

S. aureus SK 23390 = test: as above; format: cell-based
Procedure: as §1

S. villaluz SK 70390 = test: as above; format: cell-based; conditions: cefazolin values in parenthesis
Procedure: as §1

Salmonella ATCC 12176 = test: as above; format: cell-based
Procedure: as §1

[2] = tested on: Serratia marc. ATCC 13880; test: as above; format: cell-based
Procedure: as §1

Strep. faecalis HH 34358 = test: as above; format: cell-based
Procedure: as §1

S. aureus SK 127 = test: as above; format: cell-based; conditions: Staphylococcus aureus, SK127, cefazolin values in parenthesis
Procedure: as §1

E. coli 12140 = test: in vivo mouse protection test
Procedure: (§2) 4200 upon subcutaneous injection; cefazolin gave results of 4.4 mg/kg against E. coli 12140 and 7.2 mg/kg against Kleb. pneumo. 4200 upon subcutaneous administration.

Kleb. pneumo. 4200 = test: in vivo mouse protection test; conditions: sc
Procedure: as §2

[3] = Escherichia coli, HH33779, E. coli HH 33779, cefazolin values in parenthesis, read-out: MIC
[4] = Escherichia coli, SK12140, E. coli SK 12140, in vitro, cefazolin values in parenthesis, read-out: MIC
[5] = Entero. aerog. ATCC 13048, in vitro, cefazolin values in parenthesis, read-out: MIC
[6] = Entero. cloacae HH 31254, in vitro, cefazolin values in parenthesis, read-out: MIC
[7] = Kleb. pneumo. SK 1200, in vitro, cefazolin values in parenthesis, read-out: MIC
[8] = Proteus mirabilis 444, cefazolin values in parenthesis, read-out: MIC
[9] = Pseudo. aerug. HH 63, in vitro, cefazolin values in parenthesis, read-out: MIC
[10] = Staphylococcus aureus, SK23390, S. aureus SK 23390, in vitro, cefazolin values in parenthesis, read-out: MIC
[11] = Enterococcus faecalis, HH34358, cefazolin values in parenthesis, read-out: MIC
[12] = Salmonella, ATCC12176, Salmonella ATCC 12176, cefazolin values in parenthesis, read-out: MIC
[13] = Serratia, ATCC13880, Serratia marc. ATCC 13880, cefazolin values in parenthesis, read-out: MIC

SMILES: CCOP(=O)(Cn1nnnc1SCC1=C(C(=O)[O-])N2C(=O)[C@@H](NC(=O)[C@H](O)c3ccccc3)[C@H]2SC1)OCC.O.[Na+] [Compound A, 7β-D-mandelamido-3-(1-diethoxyphosphinylmethyltetrazol-5-ylthiomethyl)-3-cephem-4-carboxylic acid sodium salt hydrate]
- MIC (E. coli HH 33779; E. coli HH 33779, cefazolin values in parenthesis, sodium salt hydrate): 6.3 µg/mL
- MIC (E. coli HH 33779; Escherichia coli, HH33779, E. coli HH 33779, cefazolin values in parenthesis): 12.5 µg/mL
- MIC (E. coli SK 12140; Escherichia coli, SK12140): 6.3 µg/mL
- MIC [1]: 12.5 µg/mL
- MIC (Entero. cloacae HH 31254): 3.1 µg/mL
- MIC (Kleb. pneumo. SK 1200): 3.1 µg/mL
- MIC (Kleb. pneumo. SK 4200): 3.1 µg/mL
- MIC (Kleb. pneumo. SK 4200; sodium salt hydrate): 1.6 µg/mL
- MIC (Proteus mirabilis 444; Proteus mirabilis 444, cefazolin values in parenthesis, sodium salt hydrate): 1.6 µg/mL
- MIC (Proteus mirabilis 444; Proteus mirabilis, 444, Proteus mirabilis 444, cefazolin values in parenthesis): 3.1 µg/mL
- MIC (Proteus morgani 179): 3.1 µg/mL
- MIC (Proteus morgani 179; sodium salt hydrate): 1.6 µg/mL
- MIC (Pseudo. aerug. HH 63): > 200 µg/mL
- MIC (S. aureus SK 23390; Staphylococcus aureus, SK23390): 0.8 µg/mL
- MIC (S. villaluz SK 70390; read-out: MIC): 50 µg/mL
- MIC (Salmonella ATCC 12176; Salmonella ATCC 12176, cefazolin values in parenthesis, sodium salt hydrate): 1.6 µg/mL
- MIC (Salmonella ATCC 12176; Salmonella, ATCC12176, Salmonella ATCC 12176, cefazolin values in parenthesis): 3.1 µg/mL
- MIC ([2]; Serratia marc. ATCC 13880, cefazolin values in parenthesis, sodium salt hydrate): 12.5 µg/mL
- MIC ([2]; Serratia, ATCC13880, Serratia marc. ATCC 13880, cefazolin values in parenthesis): 25 µg/mL
- MIC (Strep. faecalis HH 34358; Enterococcus faecalis, HH34358, cefazolin values in parenthesis): 12.5 µg/mL
- MIC (Strep. faecalis HH 34358; cefazolin values in parenthesis, sodium salt hydrate): 25 µg/mL

SMILES: CCOP(=O)(O)Cn1nnnc1SCC1=C(C(=O)O)N2C(=O)[C@@H](NC(=O)[C@H](O)c3ccccc3)[C@H]2SC1 [Compound B, 7β-D-mandelamido-3-(1-ethoxyhydroxyphosphinylmethyltetrazol-5-ylthiomethyl)-3-cephem-4-carboxylic acid disodium salt hydrate]
- MIC (E. coli HH 33779; [3]): 1.6 µg/mL
- MIC (E. coli SK 12140; E. coli SK 12140, in vitro, cefazolin values in parenthesis, disodium salt hydrate): 0.8 µg/mL
- MIC (E. coli SK 12140; [4]): 0.4 µg/mL
- MIC [1, 5]: 3.1 µg/mL
- MIC (Entero. cloacae HH 31254; [6]): 0.8 µg/mL
- MIC (Kleb. pneumo. SK 1200; [7]): 0.4 µg/mL
- MIC (Kleb. pneumo. SK 4200; read-out: MIC): 0.4 µg/mL
- MIC (Proteus mirabilis 444; [8]): 1.6 µg/mL
- MIC (Pseudo. aerug. HH 63; [9]): > 200 µg/mL
- MIC (S. aureus SK 127): 6.3 µg/mL
- MIC (S. aureus SK 23390; [10]): 1.6 µg/mL
- MIC (S. villaluz SK 70390; read-out: MIC): > 200 µg/mL
- MIC (Strep. faecalis HH 34358; [11]): 100 µg/mL
- MIC (Strep. faecalis HH 34358; cefazolin values in parenthesis, disodium salt hydrate): 50 µg/mL
- ED50 (E. coli 12140; Escherichia coli, 12140, sc): 1.02 mg/kg
- ED50 (Kleb. pneumo. 4200; Mus musculus): 0.39 mg/kg

SMILES: O=C(O)C1=C(CSc2nnnn2CP(=O)(O)O)CS[C@@H]2[C@H](NC(=O)[C@H](O)c3ccccc3)C(=O)N12 [Compound C, 7β-D-mandelamido-3-(1-phosphonomethyltetrazol-5-ylthiomethyl)-3-cephem-4-carboxylic acid]
- MIC (E. coli HH 33779; [3]): 3.1 µg/mL (≈ 5.71 µM)
- MIC (E. coli SK 12140; [4]): 3.1 µg/mL (≈ 5.71 µM)
- MIC [1, 5]: 6.3 µg/mL (≈ 11.6 µM)
- MIC (Entero. cloacae HH 31254; [6]): 1.6 µg/mL (≈ 2.95 µM)
- MIC (Kleb. pneumo. SK 1200; [7]): 0.8 µg/mL (≈ 1.47 µM)
- MIC (Kleb. pneumo. SK 4200; read-out: MIC): 1.6 µg/mL (≈ 2.95 µM)
- MIC (Proteus mirabilis 444; [8]): 0.4 µg/mL (≈ 0.737 µM)
- MIC (Proteus morgani 179; read-out: MIC): 50 µg/mL (≈ 92.2 µM)
- MIC (Pseudo. aerug. HH 63; [9]): > 200 µg/mL
- MIC (S. aureus SK 127): 6.3 µg/mL (≈ 11.6 µM)
- MIC (S. aureus SK 23390; [10]): 3.1 µg/mL (≈ 5.71 µM)
- MIC (S. villaluz SK 70390; read-out: MIC): > 200 µg/mL
- MIC (Salmonella ATCC 12176; [12]): 0.8 µg/mL (≈ 1.47 µM)
- MIC [2, 13]: 3.1 µg/mL (≈ 5.71 µM)
- MIC (Strep. faecalis HH 34358; [11]): 200 µg/mL (≈ 369 µM)

SMILES: Cc1nnc(SCC2=C(C(=O)O)N3C(=O)[C@@H](NC(=O)Cn4cnnn4)[C@H]3SC2)s1 [cefazolin, reference compound]
- MIC (E. coli HH 33779; E. coli HH 33779, cefazolin values in parenthesis): 0.8 µg/mL (≈ 1.76 µM)
- MIC (E. coli HH 33779; [3]): 1.6 µg/mL (≈ 3.52 µM)
- MIC (E. coli SK 12140; [4]): 0.8 µg/mL (≈ 1.76 µM)
- MIC (Entero. cloacae HH 31254; [6]): 0.8 µg/mL (≈ 1.76 µM)
- MIC (Kleb. pneumo. SK 1200; Kleb. pneumo. SK 1200, in vitro, cefazolin values in parenthesis): 0.4 µg/mL (≈ 0.88 µM)
- MIC (Kleb. pneumo. SK 1200; [7]): 0.8 µg/mL (≈ 1.76 µM)
- MIC (Kleb. pneumo. SK 4200; read-out: MIC): 1.6 µg/mL (≈ 3.52 µM)
- MIC (Proteus mirabilis 444; [8]): 3.1 µg/mL (≈ 6.82 µM)
- MIC (Proteus morgani 179): 100 µg/mL (≈ 220 µM)
- MIC (Proteus morgani 179; read-out: MIC): 200 µg/mL (≈ 440 µM)
- MIC (Pseudo. aerug. HH 63; [9]): > 200 µg/mL
- MIC (S. aureus SK 127): 0.4 µg/mL (≈ 0.88 µM)
- MIC (S. aureus SK 23390; S. aureus SK 23390, in vitro, cefazolin values in parenthesis): 0.2 µg/mL (≈ 0.44 µM)
- MIC (S. aureus SK 23390; [10]): 0.4 µg/mL (≈ 0.88 µM)
- MIC (S. villaluz SK 70390): 100 µg/mL (≈ 220 µM)
- MIC (Salmonella ATCC 12176; Salmonella ATCC 12176, cefazolin values in parenthesis): 0.4 µg/mL (≈ 0.88 µM)
- MIC (Salmonella ATCC 12176; [12]): 0.8 µg/mL (≈ 1.76 µM)
- MIC ([2]; ATCC13880, Serratia marc. ATCC 13880, cefazolin values in parenthesis, read-out: MIC): 50 µg/mL (≈ 110 µM)
- MIC [2, 13]: > 200 µg/mL
- MIC (Strep. faecalis HH 34358; [11]): 6.3 µg/mL (≈ 13.9 µM)
- ED50 (E. coli 12140; Escherichia coli, sc, mouse protection, E. coli 12140, subcutaneous, read-out: ED50): 4.4 mg/kg
- ED50 (Kleb. pneumo. 4200; mouse protection, Kleb. pneumo. 4200, subcutaneous, read-out: ED50): 7.2 mg/kg
